In one assay the test system is SMN protein. The assay is described as follows: SMN protein assay (HTRF) in cultured SMA patient fibroblast cells. Type of assay: cell-based. The settings on record: SMA Type 1 human fibroblasts GM03813, 48 hours; for EC1.5x SMN protein (EC1.5x concentration for SMN protein expression): 7-point concentration curve, concentration giving 1.5 times SMN protein vs vehicle; for max. fold increase (maximum fold increase of SMN protein): 7-point concentration data, fold vs vehicle control. How it is done: The SMN HTRF (homogeneous time resolved fluorescence) assay is used to quantify the level of SMN protein in SMA patient fibroblast cells treated with test compounds.
Cells are thawed and cultured in DMEM-10% FBS for 72 hours. Cells are trypsinized, counted and re-suspended to a concentration of 25,000 cells/mL in DMEM-10% FBS. The cell suspensions are plated at 5,000 cells per well in a 96 well microtiter plate and incubated for 3 to 5 hours. […] 1 μL of test compound solution is transferred to cell-containing wells and cells are incubated for 48 hours in a cell culture incubator (37° C., 5% CO2, 100% relative humidity). Triplicate samples are set up for each test compound concentration. After 48 hours, the supernatant is removed from the wells and 25 μL of the RIPA lysis buffer, containing protease inhibitors, is added to the wells and incubated with shaking at room temperature for 1 hour. 25 μL of the diluent is added and then 35 μL of the resulting lysate is transferred to a 384-well plate, where each well contains 5 μL of the antibody solution (1:100 dilution of anti-SMN d2 and anti-SMN kryptate in SMN reconstitution buffer). The plate is centrifuged for 1 minute to bring the solution to the bottom of the wells, then incubated overnight at room temperature. Fluorescence for each well of the plate at 665 nm and 620 nm is measured on an EnVision multilabel plate reader (Perkin-Elmer).
The normalized fluorescence signal is calculated for each sample, Blank and vehicle control well by dividing the signal at 665 nm by the signal at 620 nm. Normalizing the signal accounts for possible fluorescence quenching due to the matrix effect of the lysate. The ΔF value (a measurement of SMN protein abundance as a percent value) for each sample well is calculated by subtracting the normalized average fluorescence for the Blank control wells from the normalized fluorescence for each sample well, then dividing this difference by the normalized average fluorescence for the Blank control wells and multiplying the resulting value by 100. The ΔF value for each sample well represents the SMN protein abundance from test compound-treated samples. The ΔF value for each sample well is divided by the ΔF value for the vehicle control wells to calculate the fold increase in SMN protein abundance relative to the vehicle control. Table 3 provides EC1.5x concentrations for SMN protein expression that was obtained from the 7-point concentration data generated according to the above procedure for particular compounds of the present invention.
Table 4 provides the maximum fold increase of SMN protein that was obtained from the 7-point concentration data generated according to the above procedure for particular compounds of the present invention
(In general: TR-FRET usually uses a lanthanide donor and a delayed reading to cut background.)

The test system of assay [1] is full length SMN2 minigene mRNA (FL SMN2mini) in HEK293H cells stably transfected with the SMN2-A minigene construct. As to the kind of experiment: SMN2 minigene mRNA splicing RT-qPCR assay in cultured cells. Type of assay: cell-based. The note with it: Homo sapiens, HEK293-H, 24 hours, 7-point concentration curve, concentration giving 1.5-fold FL SMN2mini mRNA vs vehicle, read-out: EC1.5x minigene (EC1.5x concentration for production of full length SMN2 minigene mRNA). How it is done: The reverse transcription-quantitative PCR-based (RT-qPCR) assay is used to quantify the level of the full length SMN2 minigene (referred to herein by the term “FL SMN2mini”) mRNA containing SMN2 exon 7 in a HEK293H cell line stably transfected with said minigene and treated with a test compound.
The SMN2-A minigene construct was prepared as described in International Patent Application WO2009/151546A1 page 145 paragraph [00400] to page 147 paragraph [00412](incl. FIG. 1 and FIG. 3 therein).
HEK293H cells stably transfected with the SMN2-A minigene construct (10,000 cells/well) are seeded in 200 μL of cell culture medium (DMEM plus 10% FBS, with 200 μg/mL hygromycin) in 96-well flat-bottom plates and the plate is immediately swirled to ensure proper dispersal of cells and the formation of an even monolayer of cells. Cells are allowed to attach for 6 hours. […] A solution of test compound (1 μL, 200× in DMSO) is added to each cell-containing well and the plate is incubated for 24 hours in a cell culture incubator (37° C., 5% CO2, 100% relative humidity). 2 replicates are prepared for each test compound concentration. The cells are then lysed in the Cells-To-Ct lysis buffer and the lysate is stored at −80° C.
Full length SMN2-A minigene and GAPDH mRNA are quantified using the primers and probes referenced in Table 1. Primer SMN Forward A (SEQ ID NO.1) hybridizes to a nucleotide sequence in exon 7 (nucleotide 22 to nucleotide 40), primer SMN Reverse A (SEQ ID NO.2) hybridizes to a nucleotide sequence in the coding sequence of Firefly luciferase, SMN Probe A (SEQ ID NO.3) hybridizes to a nucleotide sequence in exon 7 (nucleotide 50 to nucleotide 54) and exon 8 (nucleotide 1 to nucleotide 21). The combination of these three oligonucleotides detects only SMN1 or SMN2 minigenes (RT-qPCR) and will not detect endogenous SMN1 or SMN2 genes.
The SMN forward and reverse primers are used at final concentrations of 0.4 μM. The SMN probe is used at a final concentration of 0.15 μM. The GAPDH primers are used at final concentrations of 0.2 μM and the probe at 0.15 μM.
The SMN2-minigene GAPDH mix (15 μL total volume) is prepared by combining 7.5 μL of 2×RT-PCR buffer, 0.4 μL of 25×RT-PCR enzyme mix, 0.75 μL of 20×GAPDH primer-probe mix, 4.0075 μL of water, 2 μL of 10-fold diluted cell lysate, 0.06 μL of 100 μM SMN forward primer, 0.06 μL of 100 μM SMN reverse primer, and 0.225 μL of 100 μM SMN probe.
PCR is carried out at the following temperatures for the indicated time: Step 1: 48° C. (15 min); Step 2: 95° C. (10 min); Step 3: 95° C. (15 sec); Step 4: 60° C. (1 min); then repeat Steps 3 and 4 for a total of 40 cycles.
Each reaction mixture contains both SMN2-A minigene and GAPDH primers/probe sets (multiplex design), allowing simultaneous measurement of the levels of two transcripts.
The increase in the abundance of the FL SMN2mini mRNA relative to that in cells treated with vehicle control is determined from real-time PCR data using a modified ΔΔCt method (as described in Livak and Schmittgen, Methods, 2001, 25:402-8). The amplification efficiency E is calculated from the slope of the amplification curve for FL SMN2mini and GAPDH individually. The abundance of FL SMN2mini and GAPDH mRNA are then calculated as (1+E)^−Ct, where Ct is the threshold value for each amplicon. The abundance of FL SMN2mini mRNA is normalized to GAPDH mRNA abundance. The normalized FL SMN2mini mRNA abundance from test compound-treated samples is then divided by normalized FL SMN2mini mRNA abundance from vehicle-treated cells to determine the level of FL SMN2mini mRNA relative to vehicle control.
Table 2 provides EC1.5x concentrations for production of full length SMN2 minigene mRNA that was obtained from the 7-point concentration data generated according to the above procedure for particular compounds of the present invention.
Background: In qPCR the cycle at which signal appears reflects the starting amount.

Structures can show the parent of a compound that is named as a salt.

In the case of `Cc1cn2cc(NC(=O)c3ccc(N4CCNC(C)C4)cc3)nc2c(C)n1` (racemic) [Example 2, rac-N-(6,8-dimethyl-imidazo[1,2-a]-pyrazin-2-yl)-4-(3-methylpiperazin-1-yl)benzamide], in the assay with SMN protein, the “EC1.5x SMN protein (EC1.5x concentration for SMN protein expression)” value (from here on “EC1.5x SMN protein”) was 0.2984 µM and the “max. fold increase (maximum fold increase of SMN protein)” value (“max. fold increase” below) is given as 1.8878. Further, the EC (1.5-fold) in assay [1] was determined as 0.14 µM.

Turning to `Cc1cn2cc(NC(=O)c3ccc(N4CCNC(C)C4)cc3F)nc2c(C)n1` (racemic) [Example 5, rac-N-(6,8-dimethyl-imidazo[1,2-a]-pyrazin-2-yl)-2-fluoro-4-(3-methyl-piperazin-1-yl)-benzamide], in the assay on SMN protein, the “EC1.5x SMN protein” value is 0.107 µM and the “max. fold increase” value is listed as 1.7757. In addition, the EC (1.5-fold) in assay [1] is 0.0612 µM.

Regarding `Cc1cn2cc(NC(=O)c3ccc(N4CCNC(C)C4)nc3)nc2c(C)n1` (racemic) [Example 7, rac-N-(6,8-dimethyl-imidazo[1,2-a]-pyrazin-2-yl)-6-(3-methyl-piperazin-1-yl)nicotinamide], in the assay on SMN protein, the “EC1.5x SMN protein” value came to 0.2834 µM and the “max. fold increase” value was 1.7936. Further, in assay [1], the EC (1.5-fold) came out at 0.142 µM.

As for `Cc1cn2cc(NC(=O)c3ccc(N4CCNC(C)C4)cn3)nc2c(C)n1` (racemic) [Example 10, rac-N-(6,8-dimethyl-imidazo[1,2-a]-pyrazin-2-yl)-5-(3-methyl-piperazin-1-yl)picolinamide], in the assay with SMN protein, the “EC1.5x SMN protein” value worked out at 0.329 µM and the “max. fold increase” value is recorded as 1.735. Further, the EC (1.5-fold) in assay [1] came to 0.665 µM.

`Cc1cn2cc(NC(=O)c3ccc(N4CCNC(C)C4)nc3)ccc2n1` (racemic) [Example 12, rac-N-(2-methyl-imidazo[1,2-a]-pyridin-6-yl)-6-(3-methyl-piperazin-1-yl)nicotinamide]: in the assay with SMN protein, the “EC1.5x SMN protein” value is 0.7037 µM and the “max. fold increase” value was determined as 1.6512. In addition, the EC (1.5-fold) in assay [1] was 0.312 µM.

Consider `Cc1cn2cc(NC(=O)c3ccc(N4CCNC(C)C4)cn3)ccc2n1` (racemic) [Example 17, rac-N-(2-methyl-imidazo[1,2-a]-pyridin-6-yl)-5-(3-methyl-piperazin-1-yl)-picolinamide], for which, in the assay on SMN protein, the “EC1.5x SMN protein” value stood at 0.5022 µM and the “max. fold increase” value is 1.6966. Further, in assay [1], the EC (1.5-fold) worked out at 0.233 µM.

Turning to `Cc1cn2cc(NC(=O)c3ccc(N4CCNC(C)C4)cc3F)ccc2n1` (racemic) [Example 18, rac-2-fluoro-N-(2 methylimidazo-[1,2-a]pyridin-6-yl)-4(3-methyl-piperazin-1-yl)-benzamide], in the assay with SMN protein, the “EC1.5x SMN protein” value is 0.1346 µM and the “max. fold increase” value was 1.7677. For the same molecule, the EC (1.5-fold) in assay [1] is 0.0523 µM.

Regarding `Cc1cn2cc(NC(=O)c3ccc(N4CCNC(C)C4)nc3)cc(C(F)(F)F)c2n1` (racemic) [Example 20, rac-N-(2-methyl-8-(trifluoromethyl)-imidazo[1,2-a]-pyridin-6-yl)-6-(3-methyl-piperazin-1-yl)-nicotinamide], in the assay with SMN protein, the “EC1.5x SMN protein” value was 0.8065 µM and the “max. fold increase” value came out at 1.7789. In addition, the EC (1.5-fold) in assay [1] is 0.489 µM.

Regarding `Cc1nc2c(F)cc(NC(=O)c3ccc(N4CCNC(C)C4)nc3)cc2o1` (racemic) [Example 27, rac-N-(4-Fluoro-2-methylbenzo-oxazol-6-yl)-6-(3-methylpiperazin-1-yl)nicotinamide], in the assay with SMN protein, the “EC1.5x SMN protein” value amounted to 0.3964 µM and the “max. fold increase” value came out at 1.6617. Moreover, the EC (1.5-fold) in assay [1] is 0.0989 µM.

Turning to `Cc1nc2c(F)cc(NC(=O)c3ccc(N4CCNC(C)C4)cc3)cc2o1` (racemic) [Example 29, rac-N-(4-fluoro-2-methylbenzo[d]-oxazol-6-yl)-4-(3-methylpiperazin-1-yl)benzamide], in the assay on SMN protein, the “EC1.5x SMN protein” value came to 0.4618 µM and the “max. fold increase” value worked out at 1.632. In assay [1], the EC (1.5-fold) worked out at 0.267 µM.

As to `Cc1cn2cc(NC(=O)c3ccc(N4CCNC(C)C4)cc3F)cc(C)c2n1` (racemic) [Example 37, rac-N-(2,8-dimethyl-imidazo[1,2-a]-pyridin-6-yl)-2-fluoro-4-(3-methylpiperazin-1-yl)benamide dihydrochloride], in the assay with SMN protein, the “EC1.5x SMN protein” value stood at 0.1196 µM and the “max. fold increase” value is reported as 1.7758. Besides, the EC (1.5-fold) in assay [1] was determined as 0.028 µM.

For `Cc1nc2ccc(NC(=O)c3ccc(N4CCNC(C)C4)cc3F)cc2o1` (racemic) [Example 38, rac-2-fluoro-N-(2-methylbenzo[d]-oxazol-6-yl)-4-(3-methylpiperazin-1-yl)benzamide dihydrochloride], in the assay with SMN protein, the “EC1.5x SMN protein” value was determined as 0.6124 µM and the “max. fold increase” value is listed as 1.8706. For the same molecule, the EC (1.5-fold) in assay [1] came to 0.472 µM.

Source of the values: US10501482B2, “Compounds for treating spinal muscular atrophy” (Hoffmann-La Roche Inc., priority 2013, dated 2019).
